Source: patent publication US6699686B1, “Modified nuclear glucocorticoid receptor, fusion protein, and DNA fragments coding for said receptor and said fusion protein” (Association pour le Development de la Recherche en …, priority 1996, dated 2004)
pEC50: −log10 of the molar value.

Key:
wild-type hGR = molecular target: T1, wild-type hGR (Homo sapiens, UniProt P04150); assay: Transcriptional activation of pTAT-tk-Luc luciferase reporter in transiently transfected CV-1 cells; format: cell-based; parameters: Luciferase activity % Wild type: concentration or dose not given beside the values; conditions: for Luciferase activity % Wild type: 24 h ligand, mean of three independent assays; for pEC50: ligand concentration giving 50% of maximum transcriptional response
T1 construct: expressed in transfected cells
T1 sequence (P04150 1-777): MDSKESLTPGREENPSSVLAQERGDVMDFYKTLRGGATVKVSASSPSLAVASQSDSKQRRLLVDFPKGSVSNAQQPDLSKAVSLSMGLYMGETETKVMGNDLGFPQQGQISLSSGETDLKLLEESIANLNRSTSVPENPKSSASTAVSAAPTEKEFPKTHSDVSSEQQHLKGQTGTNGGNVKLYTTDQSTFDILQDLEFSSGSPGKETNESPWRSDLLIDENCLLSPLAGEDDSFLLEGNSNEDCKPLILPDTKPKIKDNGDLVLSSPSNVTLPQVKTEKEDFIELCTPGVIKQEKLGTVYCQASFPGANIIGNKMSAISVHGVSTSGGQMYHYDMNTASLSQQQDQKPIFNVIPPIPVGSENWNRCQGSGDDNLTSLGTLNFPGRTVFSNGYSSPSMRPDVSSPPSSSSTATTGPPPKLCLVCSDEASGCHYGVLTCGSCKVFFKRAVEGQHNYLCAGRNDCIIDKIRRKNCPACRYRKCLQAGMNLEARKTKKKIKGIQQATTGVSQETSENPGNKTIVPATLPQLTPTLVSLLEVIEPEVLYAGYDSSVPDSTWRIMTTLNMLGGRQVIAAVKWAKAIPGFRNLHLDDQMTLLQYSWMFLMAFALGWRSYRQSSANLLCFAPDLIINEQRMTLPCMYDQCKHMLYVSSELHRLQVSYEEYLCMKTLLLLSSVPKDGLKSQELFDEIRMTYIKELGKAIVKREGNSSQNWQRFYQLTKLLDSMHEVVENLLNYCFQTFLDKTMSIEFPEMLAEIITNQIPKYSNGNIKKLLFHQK
Protocol: The receptors were transiently expressed in GR-free CV-1 cells, conjointly with a luciferase reporter gene under the control of the tyrosine aminotransferase promoter (pTAT-tk-Luc).
After transfection, the cells were incubated for 24 hours with increasing concentrations of Dex, and they were then subjected to an assay of the β-galactosidase and luciferase activities, as described in “Materials and Methods”. The luciferase activity was normalized with the β-galactosidase activity, and the value obtained in the absence of ligand was subtracted for each point. The results were expressed as a percentage of the maximum luciferase activity obtained for each receptor. Each point is the mean±standard deviation of the mean of four separate determinations carried out in duplicate. […] The [^3H] steroid attached was measured after treatment with dextran-coated charcoal. The results presented are those for a single assay carried out in duplicate and representative of three separate assays.
Co-transfections were carried out and dose-response curves were constructed as described in FIG. 2. […] The assays of luciferase and β-galactosidase activity were carried out as described in “Materials and Methods”. The mean values of three independent assays are given in this table. nm=not measurable.
The CV-1 and Cos-7 cells were cultured in Dulbeco's modified Eagle's medium (DMEM) containing 10% (v/v) of fetal calf serum (FCS) (Gibco, Grand Island, N.Y.), in a humidified atmosphere containing 5% CO2. The HeLa cells were cultured under the same conditions. Transient transfections were carried out in 6-well multiplates according to the calcium phosphate procedure already described (42). A reference recombinant plasmid, pCMV-βgal, expressing bacterial β-galactosidase, was transfected conjointly with the receptor expression vector and the corresponding reporter gene so as to correct possible variations in he transfection efficiency. The precipitate was removed by washing after 24 hours, and the cells were kept in DMEX without FCS but containing hormone. After another 24 hours, the cells were rinsed and lysed for 15 minutes with 0.3 ml of lysis buffer [25 mM Tris.phosphate, pH 7.8, 8 mM […], 1% Triton X100, 10% glycerol (48)]. The corresponding luciferase activity as determined on an aliquot fraction (0.1 ml), by evaluation of the luminescence peak (for an integration time of 15 seconds), after injection of 0.1 ml of 1 mM luciferin in an LKB luminometer. The β-galactosidase was determined by the method modified by Bocquel et al. (49), for controlling the efficiency of each transfection.
The reporter gene pTAT-tk-Luc was provided by D. Gagne and was constructed as follows: an intermediate plasmid pTAT was first generated by insertion of the 966 bp EcoRI-BamHI segment obtained from pKT531 [offered freely by T. Grande (50)] into the corresponding sites of the vector pUC19 (Pharmacia). The fragment containing the sequence coding for the firefly luciferase and the thymidine kinase (tk) minimal promoter obtained from the Herpes simplex virus was isolated in the form of a BamHI fragment from pvit-tk-Luc (51) and inserted, downstream of the TAT promoter, into the corresponding site of pTAT. The reporter plasmid pGRE-tk-Luc was constructed by ligation of the fragment of HindIII-BglII digestion of pGRE-tk-CAT (52), which contains a synthetic GRE (AGAACAcagTGTTCT) upstream of the tk minimal promoter, into the HindIII-BglII sites of pLuc (53). The reporter gene p(17M)5-βGlob-Luc has been previously described (54). The reporter plasmid p(17M)5-tata-Luc was constructed from the plasmid p(17M)5-tata-CAT (55) by digestion with XhoI-BamHI and isolation of the fragment containing (17M5)-tata. This fragment was then inserted into the vector pGL2 (Promega) digested with the same restriction enzymes.

Cre-LBD[GR(I747/T)] = molecular target: T2, Cre-LBD[GR(I747/T)] (Homo sapiens, UniProt P04150, I747T); assay: PCR test of recombinase activity in HeLa cells cotransfected with pCre-LBD[GR(I747/T)] and pRXRα(LNL); format: cell-based; conditions: ligand 10^−7 M, 72 hours
T2 construct: the region containing the mutated LBD of HG1 [aa 500-777]; Cre recombinase aa 1-343 (bacteriophage P1); F region of the human estrogen receptor (aa 553-595); expressed in transfected cells
T2 sequence (P04150 500-777 I747T): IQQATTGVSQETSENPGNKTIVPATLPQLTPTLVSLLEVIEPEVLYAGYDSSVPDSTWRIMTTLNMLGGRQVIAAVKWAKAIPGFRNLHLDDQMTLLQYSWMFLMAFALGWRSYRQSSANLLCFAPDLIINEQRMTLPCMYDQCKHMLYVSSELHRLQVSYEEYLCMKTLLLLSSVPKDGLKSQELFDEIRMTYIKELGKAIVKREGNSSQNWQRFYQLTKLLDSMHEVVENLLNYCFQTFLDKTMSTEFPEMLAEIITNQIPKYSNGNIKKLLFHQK
Protocol: [optionally cotransfected with 5 μg of the vector pRXRα^(LNL) for the HeLa cells] with the aid of an electroporator (Bio-Rad gene pulser), set at 200 V and 960 μF. The cells were then inoculated at 10^6 cells per 100 mm dish and treated, if necessary, with ligands.
The products of the reaction were separated on acrylamide gel and stained with ethidium bromide. Lane 1 corresponds to the loading of the 1 kb ladder size marker (GibcoBRL).

Structure (SMILES) | stimulation of the luciferase reporter with the wild-type GR (wild-type hGR) | Luciferase activity % Wild type (wild-type hGR) [%] | pEC50 (wild-type hGR) | recombinase activity (PCR band of recombinant fragment) (Cre-LBD[GR(I747/T)])
C[C@]12CCC(=O)C=C1CC[C@@H]1[C@@H]2[C@@H](O)C[C@]2(C=O)[C@@H](C(=O)CO)CC[C@@H]12 [Aldosterone, aldosterone] | as effective as Dex | 90 | 7.30 | only the fragment corresponding to the wild-type allele can be detected
C[C@@H]1C[C@H]2[C@@H]3CCC4=CC(=O)C=C[C@]4(C)[C@@]3(F)[C@@H](O)C[C@]2(C)[C@@]1(O)C(=O)CO [Dexamethasone, dexamethasone] | – | 100 | – | –
C[C@]12C[C@H](O)[C@H]3[C@@H](CCC4=CC(=O)CC[C@@]43C)[C@@H]1CC[C@@H]2C(=O)CO [Corticosterone, corticosterone] | as effective as Dex | 100 | 7.15 | only the fragment corresponding to the wild-type allele can be detected
C[C@]12CCC(=O)C=C1CC[C@@H]1[C@@H]2[C@@H](O)C[C@@]2(C)[C@H]1CC[C@]2(O)C(=O)CO [Cortisol, cortisol] | as effective as Dex | 110 | – | only the fragment corresponding to the wild-type allele can be detected
